Test results: article PMC5218480 (PLoS ONE, 2017)

System: MV-4-11 cells
Experiment: Gene expression microarray analysis (Affymetrix PrimeView) and GSEA
Format: cell-based, human
Set-up: RFU PODN (11730768_x_at) / Fold change /veh PODN (11730768_x_at) / RFU LINC00158 (11744669_a_at) / Fold change /veh LINC00158 (11744669_a_at) / RFU DUSP10 (11751237_a_at) / Fold change /veh DUSP10 (11751237_a_at) / RFU ID3 (11757404_x_at) / Fold change /veh ID3 (11757404_x_at) / RFU PLEKHG5 (11737974_s_at) / Fold change /veh PLEKHG5 (11737974_s_at) / RFU LRRC4B (11730491_at) / Fold change /veh LRRC4B (11730491_at) / RFU GIMAP4 (11747438_a_at) / Fold change /veh GIMAP4 (11747438_a_at) / RFU KRT8 (11758183_x_at) / Fold change /veh KRT8 (11758183_x_at) / RFU CNN1 (11734310_a_at) / Fold change /veh CNN1 (11734310_a_at) / RFU VPS37D (11726825_at) / Fold change /veh VPS37D (11726825_at) / RFU C10orf10 (11716522_x_at) / Fold change /veh C10orf10 (11716522_x_at) / RFU KIR2DL2 /// KIR2DL4 /// KIR2DL5A /// KIR2DL5B /// KIR2DS1 /// KIR2DS2 /// KIR2DS3 /// KIR2DS4 /// KIR3DL3 /// KIR3DL3 /// KIR3DS1 (11738374_at) / Fold change /veh KIR2DL2 /// KIR2DL4 /// KIR2DL5A /// KIR2DL5B /// KIR2DS1 /// KIR2DS2 /// KIR2DS3 /// KIR2DS4 /// KIR3DL3 /// KIR3DL3 /// KIR3DS1 (11738374_at) / RFU C1QL1 (11718748_at) / Fold change /veh C1QL1 (11718748_at) / RFU TMPRSS4 (11747572_a_at) / Fold change /veh TMPRSS4 (11747572_a_at) / RFU HAMP (11756126_x_at) / Fold change /veh HAMP (11756126_x_at) / RFU RNFT2 (11725882_a_at) / Fold change /veh RNFT2 (11725882_a_at) / RFU NR4A2 (11747474_a_at) / Fold change /veh NR4A2 (11747474_a_at) / RFU ABCC12 (11746883_a_at) / Fold change /veh ABCC12 (11746883_a_at) / RFU TMEM136 (11760407_x_at) / Fold change /veh TMEM136 (11760407_x_at) / RFU CLDN22 /// WWC2 (11732394_at) / Fold change /veh CLDN22 /// WWC2 (11732394_at) / RFU HLA-DPB1 (11760878_x_at) / Fold change /veh HLA-DPB1 (11760878_x_at) / RFU SPINT1 (11716480_a_at) / Fold change /veh SPINT1 (11716480_a_at) / RFU GAP43 (11754022_s_at) / Fold change /veh GAP43 (11754022_s_at) / RFU A4GNT (11735810_at) / Fold change /veh A4GNT (11735810_at) / RFU PRB3 (11715151_x_at) / Fold change /veh PRB3 (11715151_x_at) / RFU TUBB4B (11761932_at) / Fold change /veh TUBB4B (11761932_at) / RFU CAPN14 (11732068_a_at) / Fold change /veh CAPN14 (11732068_a_at) / RFU TMCC2 (11721928_a_at) / Fold change /veh TMCC2 (11721928_a_at) / RFU IRGQ (11745062_a_at) / Fold change /veh IRGQ (11745062_a_at) / RFU FAM174B (11720279_a_at) / Fold change /veh FAM174B (11720279_a_at) / RFU TMPRSS4 (11748680_a_at) / Fold change /veh TMPRSS4 (11748680_a_at) / RFU FAM212B (11763350_a_at) / Fold change /veh FAM212B (11763350_a_at) / RFU PLEKHG5 (11743358_a_at) / Fold change /veh PLEKHG5 (11743358_a_at) / RFU ZSCAN30 (11745921_a_at) / Fold change /veh ZSCAN30 (11745921_a_at) / RFU CMKLR1 (11741424_a_at) / Fold change /veh CMKLR1 (11741424_a_at) / RFU LOC101060620 /// MAPK8IP1 (11723275_at) / Fold change /veh LOC101060620 /// MAPK8IP1 (11723275_at) / RFU SPTSSB (11747773_x_at) / Fold change /veh SPTSSB (11747773_x_at) / RFU PRSS12 (11739890_at) / Fold change /veh PRSS12 (11739890_at) / RFU BIN1 (11741810_x_at) / Fold change /veh BIN1 (11741810_x_at) / RFU WNT11 (11732464_a_at) / Fold change /veh WNT11 (11732464_a_at) / RFU C10orf10 (11716521_a_at) / Fold change /veh C10orf10 (11716521_a_at) / RFU C5orf56 (11738089_at) / Fold change /veh C5orf56 (11738089_at) / RFU CYB561 (11721691_x_at) / Fold change /veh CYB561 (11721691_x_at) / RFU ANKRD19P (11752326_a_at) / Fold change /veh ANKRD19P (11752326_a_at) / RFU OR2T12 /// OR2T33 /// OR2T8 (11738714_s_at) / Fold change /veh OR2T12 /// OR2T33 /// OR2T8 (11738714_s_at) / RFU VCAN (11748164_a_at) / Fold change /veh VCAN (11748164_a_at) / RFU JSRP1 (11732532_at) / Fold change /veh JSRP1 (11732532_at) / RFU KRTAP10-11 (11738290_x_at) / Fold change /veh KRTAP10-11 (11738290_x_at) / RFU MYO3A (11730013_a_at) / Fold change /veh MYO3A (11730013_a_at) / RFU EBF3 (11725865_a_at) / Fold change /veh EBF3 (11725865_a_at) / RFU CAMK2N1 (11719241_x_at) / Fold change /veh CAMK2N1 (11719241_x_at) / RFU C5orf56 (11738088_a_at) / Fold change /veh C5orf56 (11738088_a_at) / RFU OLFML3 (11715873_a_at) / Fold change /veh OLFML3 (11715873_a_at) / RFU LOC100653217 /// NTM (11731650_a_at) / Fold change /veh LOC100653217 /// NTM (11731650_a_at) / RFU MAPK11 (11762145_a_at) / Fold change /veh MAPK11 (11762145_a_at) / RFU FIZ1 (11724087_x_at) / Fold change /veh FIZ1 (11724087_x_at) / RFU OASL (11726364_x_at) / Fold change /veh OASL (11726364_x_at) / RFU SOX15 (11748057_x_at) / Fold change /veh SOX15 (11748057_x_at) / RFU CD79A (11719716_a_at) / Fold change /veh CD79A (11719716_a_at) / RFU HIST1H1D (11736915_at) / Fold change /veh HIST1H1D (11736915_at) / RFU CASKIN2 (11723855_a_at) / Fold change /veh CASKIN2 (11723855_a_at) / RFU LOC730098 (11760151_x_at) / Fold change /veh LOC730098 (11760151_x_at) / RFU OR4N2 (11742367_at) / Fold change /veh OR4N2 (11742367_at) / RFU PRRT2 (11749266_a_at) / Fold change /veh PRRT2 (11749266_a_at) / RFU SNX32 (11753110_a_at) / Fold change /veh SNX32 (11753110_a_at) / RFU CDHR5 (11726645_a_at) / Fold change /veh CDHR5 (11726645_a_at) / RFU RCAN1 (11760418_a_at) / Fold change /veh RCAN1 (11760418_a_at) / RFU FAM167A (11723789_a_at) / Fold change /veh FAM167A (11723789_a_at) / RFU FAM26E (11764081_at) / Fold change /veh FAM26E (11764081_at) / RFU ISYNA1 (11749810_s_at) / Fold change /veh ISYNA1 (11749810_s_at) / RFU ACY1 (11761880_at) / Fold change /veh ACY1 (11761880_at) / RFU 11764098_at / Fold change /veh 11764098_at / RFU SAMD14 (11745864_x_at) / Fold change /veh SAMD14 (11745864_x_at) / RFU NPB (11741838_a_at) / Fold change /veh NPB (11741838_a_at) / RFU TMPRSS6 (11731388_a_at) / Fold change /veh TMPRSS6 (11731388_a_at) / RFU KRTAP10-2 (11738614_at) / Fold change /veh KRTAP10-2 (11738614_at) / RFU ARHGAP8 /// PRR5-ARHGAP8 (11727945_x_at) / Fold change /veh ARHGAP8 /// PRR5-ARHGAP8 (11727945_x_at) / RFU KRTAP5-7 /// NADSYN1 (11734609_at) / Fold change /veh KRTAP5-7 /// NADSYN1 (11734609_at) / RFU RASL12 (11751679_a_at) / Fold change /veh RASL12 (11751679_a_at) / RFU CDKN2B (11736163_a_at) / Fold change /veh CDKN2B (11736163_a_at) / RFU PRF1 (11729649_at) / Fold change /veh PRF1 (11729649_at) / RFU, ZNF638 /// ZNF638-IT1 / Fold change vs veh, ZNF638 /// ZNF638-IT1 / RFU, PANK3 / Fold change vs veh, PANK3 / RFU, SH3YL1 / Fold change vs veh, SH3YL1 / RFU, ZEB2 / Fold change vs veh, ZEB2 / RFU, NRIP1 / Fold change vs veh, NRIP1 / RFU, PTTG1IP / Fold change vs veh, PTTG1IP / RFU, CAPN2 / Fold change vs veh, CAPN2 / RFU, MED14 / Fold change vs veh, MED14 / RFU, SNORA58 / Fold change vs veh, SNORA58 / RFU, C1orf63 / Fold change vs veh, C1orf63 / RFU, LRRFIP1 / Fold change vs veh, LRRFIP1 / RFU, NDUFAF7 / Fold change vs veh, NDUFAF7 / RFU, SLC12A2 / Fold change vs veh, SLC12A2 / RFU, IBTK / Fold change vs veh, IBTK / RFU, ESF1 / Fold change vs veh, ESF1 / Fold change vs veh, TMEM50B / RFU, TAOK1 / Fold change vs veh, TAOK1 / RFU, ACBD3 / Fold change vs veh, ACBD3 / RFU, TMA16 / Fold change vs veh, TMA16 / RFU, RWDD3 / Fold change vs veh, RWDD3 / RFU, BCAT1 / Fold change vs veh, BCAT1 / RFU, EDEM3 / Fold change vs veh, EDEM3 / RFU, TMEM33 / Fold change vs veh, TMEM33 / RFU, WDR75 / Fold change vs veh, WDR75 / RFU, AHCTF1 / Fold change vs veh, AHCTF1 / RFU, TFRC / Fold change vs veh, TFRC / RFU, ZDHHC17 / Fold change vs veh, ZDHHC17 / RFU, NOM1 / Fold change vs veh, NOM1 / RFU, ARL8B / Fold change vs veh, ARL8B / RFU, ZBTB11 / Fold change vs veh, ZBTB11 / RFU, TAMM41 / Fold change vs veh, TAMM41 / RFU, KIAA1704 /// LOC100996395 / Fold change vs veh, KIAA1704 /// LOC100996395 / RFU, ING1 / Fold change vs veh, ING1 / RFU, TRMT61B / Fold change vs veh, TRMT61B / RFU, FUBP3 / Fold change vs veh, FUBP3 / RFU, TP53 / Fold change vs veh, TP53 / RFU, TNKS2 / Fold change vs veh, TNKS2 / RFU, ZFP14 / Fold change vs veh, ZFP14 / RFU, ACTR2 / Fold change vs veh, ACTR2 / RFU, PPP3R1 / Fold change vs veh, PPP3R1 / RFU, PIK3R1 / Fold change vs veh, PIK3R1 / RFU, HNRNPA1 / Fold change vs veh, HNRNPA1 / RFU, RNF170 / Fold change vs veh, RNF170 / RFU, ZNF28 / Fold change vs veh, ZNF28 / RFU, RNGTT / Fold change vs veh, RNGTT / RFU, OGT / Fold change vs veh, OGT / RFU, BRD1 / Fold change vs veh, BRD1 / RFU, MARS / Fold change vs veh, MARS / RFU, ZNF655 / Fold change vs veh, ZNF655 / RFU, FAHD1 / Fold change vs veh, FAHD1 / RFU, BDP1 / Fold change vs veh, BDP1 / RFU, LRRCC1 / Fold change vs veh, LRRCC1 / RFU, ARID1A / Fold change vs veh, ARID1A / RFU, ZNF146 / Fold change vs veh, ZNF146 / RFU, ZNF330 / Fold change vs veh, ZNF330 / RFU, GPN3 / Fold change vs veh, GPN3 / RFU, C9orf123 / Fold change vs veh, C9orf123 / RFU, N4BP2L2 / Fold change vs veh, N4BP2L2 / RFU, ARFIP1 / Fold change vs veh, ARFIP1 / RFU, FAM179B / Fold change vs veh, FAM179B / RFU, BCL10 / Fold change vs veh, BCL10 / RFU, UHRF1BP1L / Fold change vs veh, UHRF1BP1L / RFU, BET1 / Fold change vs veh, BET1 / RFU, CNOT2 / Fold change vs veh, CNOT2 / RFU, ZNF268 / Fold change vs veh, ZNF268 / Fold change vs veh, ZNF507 / RFU, DGCR2 / Fold change vs veh, DGCR2 / RFU, WDSUB1 / Fold change vs veh, WDSUB1 / Fold change vs veh, HSP90B1 /// MIR3652 / RFU, ADSS / Fold change vs veh, ADSS / RFU, GK / Fold change vs veh, GK / RFU, ZNF148 / Fold change vs veh, ZNF148 / RFU, TAF9 / Fold change vs veh, TAF9 / RFU, SLC1A5 / Fold change vs veh, SLC1A5 / RFU, SLMO2 / Fold change vs veh, SLMO2 / RFU, ABCC4 / Fold change vs veh, ABCC4 / RFU, LOC101060439 /// RAP1B / Fold change vs veh, LOC101060439 /// RAP1B / RFU, RFX7 / Fold change vs veh, RFX7 / RFU, GTPBP10 / Fold change vs veh, GTPBP10 / RFU, CNEP1R1 / Fold change vs veh, CNEP1R1 / RFU, BIVM-ERCC5 /// ERCC5 / Fold change vs veh, BIVM-ERCC5 /// ERCC5 / RFU, ILF3 / Fold change vs veh, ILF3 / RFU 11762660_at / Fold change /veh 11762660_at / RFU VCAN (11757783_s_at) / Fold change /veh VCAN (11757783_s_at) / RFU DDX43 (11728927_at) / Fold change /veh DDX43 (11728927_at) / RFU KRT8 (11758188_x_at) / Fold change /veh KRT8 (11758188_x_at) / RFU NKD1 (11759106_at) / Fold change /veh NKD1 (11759106_at) / RFU SRD5A1 (11742802_a_at) / Fold change /veh SRD5A1 (11742802_a_at) / RFU TPSAB1 /// TPSB2 (11721975_s_at) / Fold change /veh TPSAB1 /// TPSB2 (11721975_s_at) / RFU GSTM3 (11746129_a_at) / Fold change /veh GSTM3 (11746129_a_at) / RFU IL23R (11737362_x_at) / Fold change /veh IL23R (11737362_x_at) / RFU TMEM51 (11727254_a_at) / Fold change /veh TMEM51 (11727254_a_at) / RFU PIWIL2 (11732686_x_at) / Fold change /veh PIWIL2 (11732686_x_at) / RFU ORM1 (11744905_x_at) / Fold change /veh ORM1 (11744905_x_at) / RFU CCDC152 (11743942_at) / Fold change /veh CCDC152 (11743942_at) / RFU ECM1 (11717891_a_at) / Fold change /veh ECM1 (11717891_a_at) / RFU IL23R (11748794_a_at) / Fold change /veh IL23R (11748794_a_at) / RFU TNFAIP8L3 (11732012_x_at) / Fold change /veh TNFAIP8L3 (11732012_x_at) / RFU MBOAT4 (11741988_at) / Fold change /veh MBOAT4 (11741988_at) / RFU 11764193_at / Fold change /veh 11764193_at / RFU TMEM53 (11763286_at) / Fold change /veh TMEM53 (11763286_at) / RFU MAGEB2 (11727129_at) / Fold change /veh MAGEB2 (11727129_at) / RFU TMEM200A (11744735_a_at) / Fold change /veh TMEM200A (11744735_a_at) / RFU CCDC152 (11751479_a_at) / Fold change /veh CCDC152 (11751479_a_at) / RFU FAM211A (11726209_a_at) / Fold change /veh FAM211A (11726209_a_at) / RFU RGS16 (11746705_a_at) / Fold change /veh RGS16 (11746705_a_at) / RFU VCAN (11755009_s_at) / Fold change /veh VCAN (11755009_s_at) / RFU RHOB (11743442_s_at) / Fold change /veh RHOB (11743442_s_at) / RFU RGS16 (11720943_a_at) / Fold change /veh RGS16 (11720943_a_at) / RFU RGS16 (11720944_at) / Fold change /veh RGS16 (11720944_at) / RFU, VPS4B / Fold change vs veh, VPS4B / RFU, CREB1 / Fold change vs veh, CREB1 / RFU, DNAJC13 / Fold change vs veh, DNAJC13 / RFU, GNAQ / Fold change vs veh, GNAQ / RFU, CDK5R1 / Fold change vs veh, CDK5R1 / RFU, ZRANB3 / Fold change vs veh, ZRANB3 / RFU, CUL4A / Fold change vs veh, CUL4A / RFU, CCNY / Fold change vs veh, CCNY / RFU, UFL1 / Fold change vs veh, UFL1 / RFU, COG3 / Fold change vs veh, COG3 / RFU, DIAPH2 / Fold change vs veh, DIAPH2 / RFU, SKA2 / Fold change vs veh, SKA2 / RFU, AFF3 / Fold change vs veh, AFF3 / RFU, LMF1 / Fold change vs veh, LMF1 / RFU, IPO11 / Fold change vs veh, IPO11 / RFU, DFFB / Fold change vs veh, DFFB / RFU, FOXP1 / Fold change vs veh, FOXP1 / RFU, CARD8 / Fold change vs veh, CARD8 / RFU, STRN3 / Fold change vs veh, STRN3 / RFU, ADK / Fold change vs veh, ADK / RFU, RASSF2 / Fold change vs veh, RASSF2 / RFU, WIPF1 / Fold change vs veh, WIPF1 / RFU, LARP1B / Fold change vs veh, LARP1B / RFU, RASA1 / Fold change vs veh, RASA1 / RFU, RB1 / Fold change vs veh, RB1 / RFU, PPFIA1 / Fold change vs veh, PPFIA1 / RFU, MAT2A / Fold change vs veh, MAT2A / RFU, CCT5 / Fold change vs veh, CCT5 / RFU, WDR92 / Fold change vs veh, WDR92 / RFU, CUX1 / Fold change vs veh, CUX1 / RFU, TTC7A / Fold change vs veh, TTC7A / RFU, TMEM135 / Fold change vs veh, TMEM135 / RFU, DEPTOR / Fold change vs veh, DEPTOR / RFU, CPM / Fold change vs veh, CPM / RFU, DNAJB6 / Fold change vs veh, DNAJB6 / RFU, CACNA2D3 / Fold change vs veh, CACNA2D3 / RFU, DTX4 / Fold change vs veh, DTX4 / RFU, TFCP2 / Fold change vs veh, TFCP2 / RFU, GMCL1 /// GMCL1P1 / Fold change vs veh, GMCL1 /// GMCL1P1 / RFU, AEBP2 / Fold change vs veh, AEBP2 / RFU, SNHG1 /// SNORD22 /// SNORD25 /// SNORD26 /// SNORD27 /// SNORD28 /// SNORD29 /// SNORD31 / Fold change vs veh, SNHG1 /// SNORD22 /// SNORD25 /// SNORD26 /// SNORD27 /// SNORD28 /// SNORD29 /// SNORD31 / Fold change (Aza/veh), C12orf56 (ProbeSet 11735607_a_at) / Fold change (ACY-1035/veh), C12orf56 (ProbeSet 11735607_a_at) / Fold change (Aza/veh), FGFR1OP (ProbeSet 11751329_s_at) / Fold change (ACY-1035/veh), FGFR1OP (ProbeSet 11751329_s_at) / Fold change (Aza/veh), VPS36 (ProbeSet 11739960_a_at) / Fold change (ACY-1035/veh), VPS36 (ProbeSet 11739960_a_at) / RFU SYPL1 (11715823_x_at) / Fold change /veh SYPL1 (11715823_x_at) / RFU IGFBP7 (11715501_s_at) / Fold change /veh IGFBP7 (11715501_s_at) / RFU REEP3 (11722064_at) / Fold change /veh REEP3 (11722064_at) / RFU IGLL1 (11728026_x_at) / Fold change /veh IGLL1 (11728026_x_at): dose or concentration left out as unconfirmed
Conditions: ProbeSet 11715478_a_at; LIST B

## Nc1ccc(-c2cccs2)cc1NC(=O)c1ccc2c(c1)cc(C1CC1)n2CCN1CCOCC1 [ACY-1035]
  Fold change vs veh, TFRC: 0.87
